Where two headings read alike, the source gives them in different places.
How the values were obtained:
H460 tumors = test: Xenograft cancer study in mice, H460, oral administration (Example 20e); type: in vivo, mouse
Text: Female Balb/C, immunologically deficient recipient mice (6-8 weeks old) had tumors implanted therein. The Balb/C donor mice were used to grow H460 tumors, which tumors were excised therefrom and subsequently sectioned into small fragments about 2 mm^3 in size. The Balb/C recipient mice were given brief general anesthesia and then one H4602 mm^3 tumor fragment from the donor mice was implanted into each of the left and right flank of the recipient mice using a trocar needle. Once the tumors in the recipient mice had reached a measurable size of about 4×4 mm, as measured by calipers placed against each mouse skin, the recipient mice were randomly placed into treatment groups, 8 per group and the oral treatment was started. 8 mice were in the positive control group (“Cisplatin”) and 8 mice were in the negative control group and received only water (“Control”). Treatment was given exclusively via the drinking bottle shared between the mice in each Treatment group. Cisplatin was given by intraperitoneal injection on day 0. Tumor size was assessed five times per week using a pair of calipers and mouse weight was also obtained by a scale, such measuring occurring until the mouse died (or was removed from the study) or the study was terminated as scheduled.
• Species: Mice • Strain: Balb/C immunodeficient mice • Source: Harlan • Gender and number: Female, 36 • Age: About 6-8 weeks old at the start of the study. • Identification: Each mouse was given a unique identity number. • Animal husbandry: On receipt, all animals were examined for external signs of ill-health and all unhealthy animals were excluded from further evaluation. Animals were housed in groups of three under specific pathogen free (spf) conditions, in a thermostatically monitored room (22±4° C.) in an animal unit. Animals were equilibrated under standard animal house conditions for at least 72 hours prior to use. The health status of the animals was monitored throughout this period and the suitability of each animal for experimental use was assessed prior to study start. • Housing Animals were housed in groups of 3 per cage in a controlled room, to ensure correct temperature, humidity and 12 hour light/dark cycle for the duration of the study. • Diet: Irradiated pellet diet and water was available ad libitum throughout the holding, acclimatisation and post-dose periods. Compound and Reagents • H460cell line (ATCC HTB-177). • Phosphate buffered saline (“PBS”). • Test compounds: Au—Pt bi-metallic nanocrystal suspensions. • Positive control compound: cisplatin. • Negative control compound: drinking water. Treatment Groups and Dosages • Negative Control Group 1: Days 0-21, given normal drinking water. • Positive Control Group 2: Days 0-21, given normal drinking water; and given a one-time cisplatin dose of 8 mg/kg by intraperitoneal injection (“IP”) on day 0. • Treatment Group 3-5: Days 0-21, given test compounds as their drinking water. Protocol A: Preparation and Growth of Donor Tumors
(§1) a.) Preparation of Tumor Cells • 1. Cells were grown in complete medium and all contaminants were excluded. • 2. When the cells were approximately 70-80% confluent, then approximately 3-4 hours before harvesting, the old cell growth medium was replaced with fresh cell growth medium to remove any dead and/or detached cells. • 3. […] The cells were then placed on a glass slide in the traditional manner and were counted using a hemocytometer. • 5. […]

HCT116 tumors [1] = test: Xenograft cancer study in mice, HCT116, oral administration (Example 20d); type: in vivo, mouse
Text: (§2) Female Balb/C, immunologically deficient recipient mice (6-8 weeks old) had tumors implanted therein. The Balb/C donor mice were used to grow HCT116 tumors, which tumors were excised therefrom and subsequently sectioned into small fragments about 2 mm^3 in size. The Balb/C recipient mice were given brief general anesthesia and then one HCT116 2 mm^3 tumor fragment from the donor mice was implanted into each of the left and right flank of the recipient mice using a trocar needle. Once the tumors in the recipient mice had reached a measurable size of about 4×4 mm, as measured by calipers placed against each mouse skin, the recipient mice were randomly placed into treatment groups, 8 per group and the oral treatment was started. 8 mice were in the positive control group (“Cisplatin”) and 8 mice were in the negative control group and received only water (“Control”). Treatment was given exclusively via the drinking bottle shared between the mice in each Treatment group. Cisplatin was given by intraperitoneal injection on day 0. Tumor size was assessed five times per week using a pair of calipers and mouse weight was also obtained by a scale, such measuring occurring until the mouse died (or was removed from the study) or the study was terminated as scheduled.
• Species: Mice • Strain: Balb/C immunodeficient mice • Source: Harlan • Gender and number: Female, 36 • Age: About 6-8 weeks old at the start of the study. • Identification: Each mouse was given a unique identity number. • Animal husbandry: On receipt, all animals were examined for external signs of ill-health and all unhealthy animals were excluded from further evaluation. Animals were housed in groups of three under specific pathogen free (spf) conditions, in a thermostatically monitored room (22±4° C.) in an animal unit. Animals were equilibrated under standard animal house conditions for at least 72 hours prior to use. The health status of the animals was monitored throughout this period and the suitability of each animal for experimental use was assessed prior to study start. • Housing Animals were housed in groups of 3 per cage in a controlled room, to ensure correct temperature, humidity and 12 hour light/dark cycle for the duration of the study. • Diet: Irradiated pellet diet and water was available ad libitum throughout the holding, acclimatisation and post-dose periods. Compound and Reagents • HCT 116 cell line (ATCC CCL-247). • Phosphate buffered saline (“PBS”). • Test compounds: Au—Pt bi-metallic nanocrystal suspensions. • Positive control compound: cisplatin. • Negative control compound: drinking water. Treatment Groups and Dosages • Negative Control Group 1: Days 0-21, given normal drinking water. • Positive Control Group 2: Days 0-21, given normal drinking water; and given a one-time cisplatin dose of 8 mg/kg by intraperitoneal injection (“IP”) on day 0. • Treatment Group 3-5: Days 0-21, given test compounds as their drinking water. Protocol A: Preparation and Growth of Donor Tumors
as §1

HCT116 tumors [2] = type: in vivo
Text: as §2
• Species: Mice • Strain: Balb/C immunodeficient mice • Source: Harlan • Gender and number: Female, 36 • Age: About 6-8 weeks old at the start of the study. • Identification: Each mouse was given a unique identity number. • Animal husbandry: On receipt, all animals were examined for external signs of ill-health and all unhealthy animals were excluded from further evaluation. Animals were housed in groups of three under specific pathogen free (spf) conditions, in a thermostatically monitored room (22±4° C.) in an animal unit. Animals were equilibrated under standard animal house conditions for at least 72 hours prior to use. The health status of the animals was monitored throughout this period and the suitability of each animal for experimental use was assessed prior to study start. • Housing Animals were housed in groups of 3 per cage in a controlled room, to ensure correct temperature, humidity and 12 hour light/dark cycle for the duration of the study. • Diet: Irradiated pellet diet and water was available ad libitum throughout the holding, acclimatisation and post-dose periods. Compound and Reagents • HCT 116 cell line (ATCC CCL-247). • Phosphate buffered saline (“PBS”). • Test compounds: gold nanocrystal suspension NE-28-10X (NE-28 produced equivalent to • NE10214 in Example 1) Concentrated 10×. • Positive control compound: cisplatin. • Negative control compound: drinking water. Treatment Groups and Dosages • Negative Control Group 1: Days 0-21, given normal drinking water. • Positive Control Group 2: Days 0-21, given normal drinking water; and given a one-time cisplatin dose of 8 mg/kg by intraperitoneal injection (“IP”) on day 0. • Treatment Group 3: Days 0-21, given test compounds as their drinking water. Protocol A: Preparation and Growth of Donor Tumors
as §1

[3] = tumor doubling time, H460 xenograft, oral
[4] = HCT116 xenograft, oral, versus Group 1 (Control)
[5] = tumor doubling time, HCT116 xenograft, oral

## N.N.[Cl][Pt][Cl] [cisplatin]
H460 tumors; H460 xenograft, oral, versus Group 1 (Control)
  Growth Delay: 2.5 days
H460 tumors; mouse, in vivo, po
  Maximum % Weight Loss: 6%
  Maximum % Weight Loss, day (d) of maximum: 3 days
H460 tumors; [3]
  Mean Time to RTV2: 5.0 days
  Median Time to RTV2: 5.0 days
HCT116 tumors [1]; [4]
  Growth Delay: 1.7 days
HCT116 tumors [1]; mouse, in vivo, po
  Maximum % Weight Loss: 5%
  Maximum % Weight Loss, day (d) of maximum: 7 days
HCT116 tumors [1]; [5]
  Mean Time to RTV2: 5.2 days
  Median Time to RTV2: 5.2 days
HCT116 tumors [2]; [4]
  Growth Delay: 0.9 days
HCT116 tumors [2]; mouse, in vivo, po
  Maximum % Weight Loss: 5%
  Maximum % Weight Loss, day (d) of maximum: 2 days
HCT116 tumors [2]; [5]
  Mean Time to RTV2: 3.9 days
  Median Time to RTV2: 3.5 days

— patent US9387225B2, “Gold-platinum based bi-metallic nanocrystal suspensions, electrochemical manufacturing processes therefor and uses for the same” (GR INTELLECTUAL RESERVE, LLC, a Nevada LLC, priority 2011, dated 2016)
